# Test results from ChEMBL document CHEMBL1201862, “PubChem BioAssay data set” (2004).
#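 1) Cells in 96-well plates. 2) Compound, 48 h, 5 concentrations. 3) Linear interpolation between surrounding doses. 4) Unreached endpoint = highest concentration. GI50 = concentration required for 50% inhibition of growth.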 Calls of active or inactive are those of the source. No stated cut-off is given here; in the data, active = GI50 up to about 1.1 µM and inactive = higher.
# Legend:
# Assay in all cases: NCI anticancer screen, dose series, 48 h
# NCI-H460 = tested on: NCI-H460
# MOLT-4 = tested on: MOLT-4
# K562 = tested on: K562
# Malme-3M = tested on: Malme-3M
# SK-MEL-5 = tested on: SK-MEL-5
# NCI-H522 = tested on: NCI-H522
# TK-10 = tested on: TK-10
# EKVX = tested on: EKVX
# M14 = tested on: M14
# A549 = tested on: A549
# BT-549 = tested on: BT-549
# UACC-62 = tested on: UACC-62
# SF-539 = tested on: SF-539
# HCT-116 = tested on: HCT-116
# SF-268 = tested on: SF-268
# RXF 393 = tested on: RXF 393
# T47D = tested on: T47D
# 786-0 = tested on: 786-0
# CCRF-CEM = tested on: CCRF-CEM
# OVCAR-4 = tested on: OVCAR-4
SMILES,GI50 (NCI-H460),GI50 (MOLT-4),GI50 (K562),GI50 (Malme-3M),GI50 (SK-MEL-5),GI50 (NCI-H522),GI50 (TK-10),GI50 (EKVX),GI50 (M14),GI50 (A549),GI50 (BT-549),GI50 (UACC-62),GI50 (SF-539),GI50 (HCT-116),GI50 (SF-268),GI50 (RXF 393),GI50 (T47D),GI50 (786-0),GI50 (CCRF-CEM),GI50 (OVCAR-4)
Oc1cccc(Nc2cc(O)nc(O)n2)c1,> 100 µM (inactive),> 100 µM (inactive),> 100 µM (inactive),> 100 µM (inactive),> 100 µM (inactive),> 100 µM (inactive),> 100 µM (inactive),> 100 µM (inactive),> 100 µM (inactive),> 100 µM (inactive),> 100 µM (inactive),> 100 µM (inactive),> 100 µM (inactive),> 100 µM (inactive),> 100 µM (inactive),> 100 µM (inactive),> 100 µM (inactive),> 100 µM (inactive),> 100 µM (inactive),> 100 µM (inactive)
C=C1CCOC2(C(O)C(C)(O)CO)NC(=O)C1(O)NC2=O (stereo not given),> 100 µM (inactive),> 100 µM (inactive),> 100 µM (inactive),> 100 µM (inactive),> 100 µM (inactive),> 100 µM (inactive),> 100 µM (inactive),> 100 µM (inactive),> 100 µM (inactive),> 100 µM (inactive),> 100 µM (inactive),> 100 µM (inactive),> 100 µM (inactive),> 100 µM (inactive),> 100 µM (inactive),> 100 µM (inactive),> 100 µM (inactive),> 100 µM (inactive),> 100 µM (inactive),> 100 µM (inactive)
COc1ccc(/C=C2\CN(C)CC3C2=NC(=S)NC3c2ccc(OC)cc2)cc1 (stereo not given),2.8 µM (inactive),2.9 µM (inactive),3.95 µM (inactive),2.99 µM (inactive),4.24 µM (inactive),1.63 µM (inactive),27.2 µM (inactive),11.5 µM (inactive),2.77 µM (inactive),4 µM (inactive),7.6 µM (inactive),4.58 µM (inactive),7.11 µM (inactive),3.43 µM (inactive),5.64 µM (inactive),2.17 µM (inactive),4.11 µM (inactive),3.66 µM (inactive),8.13 µM (inactive),4.92 µM (inactive)
COC(=O)[C@]1(NC(=O)c2ccccc2)C[C@H]1C=O,15 µM (inactive),> 64.7 µM (inactive),> 100 µM (inactive),> 100 µM (inactive),> 100 µM (inactive),> 61.1 µM (inactive),> 100 µM (inactive),> 100 µM (inactive),> 100 µM (inactive),> 100 µM (inactive),98.2 µM (inactive),> 64.7 µM (inactive),> 100 µM (inactive),> 100 µM (inactive),> 84.5 µM (inactive),> 100 µM (inactive),> 100 µM (inactive),> 100 µM (inactive),21.6 µM (inactive),> 100 µM (inactive)
O=C1/C(=C/c2ccc(O)cc2)Oc2ccccc21,> 100 µM (inactive),44.9 µM (inactive),40.9 µM (inactive),> 100 µM (inactive),> 100 µM (inactive),23.8 µM (inactive),> 100 µM (inactive),> 100 µM (inactive),> 100 µM (inactive),> 100 µM (inactive),> 100 µM (inactive),> 100 µM (inactive),> 100 µM (inactive),98.4 µM (inactive),> 100 µM (inactive),> 100 µM (inactive),> 100 µM (inactive),> 100 µM (inactive),32.2 µM (inactive),72.6 µM (inactive)
C#Cc1cc(Br)c(OC(=O)C(C)(C)C)c(-c2cc(C#C)cc(Br)c2OC(=O)C(C)(C)C)c1,42.5 µM (inactive),23 µM (inactive),35.8 µM (inactive),> 100 µM (inactive),37.6 µM (inactive),32.5 µM (inactive),> 100 µM (inactive),31.2 µM (inactive),43.7 µM (inactive),31.8 µM (inactive),> 100 µM (inactive),81.5 µM (inactive),64.6 µM (inactive),21 µM (inactive),50 µM (inactive),17.4 µM (inactive),18.3 µM (inactive),41.5 µM (inactive),10.3 µM (inactive),73.1 µM (inactive)
CC[C@@]1(C[C@H]2C[C@@]3(C(=O)OC)c4[nH]c5ccccc5c4CCN3C2=S)COC2(CCCCC2)O1,5.78 µM (inactive),6.15 µM (inactive),5.48 µM (inactive),> 100 µM (inactive),3.12 µM (inactive),59.2 µM (inactive),11.2 µM (inactive),58.9 µM (inactive),23.7 µM (inactive),54.6 µM (inactive),4.72 µM (inactive),11.3 µM (inactive),> 100 µM (inactive),6.92 µM (inactive),62.5 µM (inactive),59.6 µM (inactive),26.2 µM (inactive),> 100 µM (inactive),7.23 µM (inactive),> 100 µM (inactive)
C=CCSS/C=C/C[S+]([O-])CC=C (stereo not given) [AJOENE],35.8 µM (inactive),3.95 µM (inactive),5.83 µM (inactive),49.2 µM (inactive),36.6 µM (inactive),16.7 µM (inactive),> 85.7 µM (inactive),> 100 µM (inactive),20.9 µM (inactive),61 µM (inactive),25.6 µM (inactive),36.3 µM (inactive),25 µM (inactive),13.1 µM (inactive),25 µM (inactive),24.9 µM (inactive),> 56.1 µM (inactive),18.3 µM (inactive),3.44 µM (inactive),> 54.8 µM (inactive)
C[C@@H]1C[C@@H](O)[C@]2(O)O[C@@H]3C[C@@]4(C=O)[C@@H](CC[C@@H]5[C@@H]4CC[C@]4(C)[C@@H](C6=CC(=O)OC6)CC[C@]54O)C[C@H]3O[C@@H]2O1 [CALACTIN],0.00464 µM (active),0.00188 µM (active),0.0179 µM (active),0.0119 µM (active),0.0101 µM (active),0.00138 µM (active),0.00906 µM (active),0.0244 µM (active),0.0222 µM (active),0.00439 µM (active),0.0379 µM (active),0.016 µM (active),0.00581 µM (active),0.0102 µM (active),0.00231 µM (active),0.0194 µM (active),0.0469 µM (active),0.00617 µM (active),0.00371 µM (active),0.0222 µM (active)
